The source of these data is patent publication US8754109B2 (Intermune, Inc., priority 2010, dated 2014).

A short description of data set [1]: Phase 1 open-label study: impact of CYP1A2 inhibition (fluvoxamine) and induction (smoking) on pirfenidone pharmacokinetics. It counts as in vivo, human. To be noted: for effect of fluvoxamine co-administration on AUC0-∞: Day 11 vs Day 1, paired t-test; for Ratio of Day 11 AUC0-∞ to Day 1 AUC0-∞, Mean (SD) / Ratio of Day 11 AUC0-∞ to Day 1 AUC0-∞, Median (25th-75th): Day 11 with fluvoxamine; for AUC0-∞ Mean (SD) / AUC0-∞ Median (25th-75th): single 801-mg dose of pirfenidone, healthy subjects n = 51, plasma.
Description: Fifty-four subjects were to be enrolled in two groups, consisting of 27 subjects who were smokers (Group 1) and 27 subjects who were nonsmokers (Group 2). Each group (smokers and nonsmokers) was to include a minimum of nine females and nine males, and attempts were to be made to enroll equal numbers of each sex in each group.
All pharmacokinetic (PK) analyses were conducted using population PK methods using Monte-Carlo parametric expectation maximization as implemented in the open-source software program S ADAPT 1.5.6 (Bauer et al., AAPS Journal 9 (1):E60-83, 2007). The structural model for the analysis was obtained from a preliminary population PK analysis.
If other subject characteristics (such as body size or age) were also associated with the ratio of AUC0-∞ on Day 11 to that on Day 1, the significance of these covariates was also tested.

For data set [2] the following is noted: pirfenidone therapy, oral; cited from earlier work.
In a further data set the target is CYP1A2 (Homo sapiens, UniProt P05177). Description: in vitro experiments on pirfenidone metabolism by CYP isoforms. The class given is in vitro ADME.
Data set [3] concerns multiple other CYPs (1A1, 2A6, 2B6, 2C8, 2C9, 2C18, 2C19, 2D6, 2E1, 2J2, 3A4, 3A5, 4A11, and 4F2). The description is as above. The class given is in vitro ADME. The settings on record: each isoform.

Structures are written as SMILES.

Chain of CYP1A2 (P05177 whole entry, canonical isoform): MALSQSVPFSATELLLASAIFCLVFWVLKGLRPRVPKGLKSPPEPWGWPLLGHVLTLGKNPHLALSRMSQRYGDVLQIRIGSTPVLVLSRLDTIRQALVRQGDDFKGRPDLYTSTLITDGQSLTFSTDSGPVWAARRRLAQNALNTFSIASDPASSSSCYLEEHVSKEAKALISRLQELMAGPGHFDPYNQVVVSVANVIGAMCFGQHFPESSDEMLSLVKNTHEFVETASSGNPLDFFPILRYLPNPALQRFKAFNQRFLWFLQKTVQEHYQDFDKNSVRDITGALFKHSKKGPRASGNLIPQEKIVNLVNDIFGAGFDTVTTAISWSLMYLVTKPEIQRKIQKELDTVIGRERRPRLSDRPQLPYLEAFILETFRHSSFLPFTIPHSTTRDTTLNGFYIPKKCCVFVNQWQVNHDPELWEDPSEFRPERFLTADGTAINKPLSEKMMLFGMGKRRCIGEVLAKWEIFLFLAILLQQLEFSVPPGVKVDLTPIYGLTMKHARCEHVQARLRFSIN

In the case of `O=C(O)c1ccc(=O)n(-c2ccccc2)c1` [5-Carboxy-Pirfenidone, 5-carboxy-pirfenidone], in data set [1] (Day 11 after fluvoxamine vs Day 1, all subjects), the “ratio of Cmax on Day 11 to the Cmax on Day 1, mean (95% CI)” value was 0.369 (0.349-0.390). Also, the “effect of fluvoxamine co-administration on AUC0-∞” value in data set [1] is recorded as “not a statistically significant effect”. For the same compound, in data set [1] (Nonsmokers (N 25)), the “Ratio of Day 11 AUC0-∞ to Day 1 AUC0-∞, Mean (SD)” value is recorded as 1.05 (0.114) and the “Ratio of Day 11 AUC0-∞ to Day 1 AUC0-∞, Median (25th-75th)” value is on record as 1.03 (0.978-1.11). In data set [1] (Smokers (N 26)), the “Ratio of Day 11 AUC0-∞ to Day 1 AUC0-∞, Mean (SD)” value was 1.12 (0.0951) and the “Ratio of Day 11 AUC0-∞ to Day 1 AUC0-∞, Median (25th-75th)” value is 1.13 (1.04-1.19). Besides, in data set [1] (Study Day 1: Pre-Fluvoxamine), the “AUC0-∞ Mean (SD)” value is 29.3 (8.22) mg · hr/L and the “AUC0-∞ Median (25th-75th)” value is 26.9 (22.0-33.7) mg · hr/L. Further, in data set [1] (Study Day 11: Post-Fluvoxamine), the “AUC0-∞ Mean (SD)” value is 31.7 (8.96) mg · hr/L and the “AUC0-∞ Median (25th-75th)” value is 29.4 (25.4-36.5) mg · hr/L.

As for `Cc1ccc(=O)n(-c2ccccc2)c1` [Pirfenidone, 5-methyl-1-phenyl-2-(1H)-pyridone, reference compound], the “incidence of most common adverse reactions (nausea, rash, dyspepsia, dizziness, vomiting, photosensitivity reaction, anorexia)” value in data set [2] was more than 10%. Besides, the “share of pirfenidone metabolism by CYP1A2” value on CYP1A2 is on record as “approx. 48%”. For the same compound, in data set [3], the “share of pirfenidone metabolism by each of the other CYPs” value was less than 13%. In data set [1] (Day 1 estimates, AUC0-∞ normalized to body surface area, multiple linear regression, smokers vs nonsmokers), the “drop in AUC0-∞ in smokers after accounting for differences in BSA” value is approximately 50%. Also, the “effect of fluvoxamine co-administration on AUC0-∞” value in data set [1] is reported as “significant increase”. In data set [1] (after administration of fluvoxamine), the “increase in Cmax after administration of fluvoxamine, on average” value was “two-fold”. The “exposure (AUC0-∞) times higher after fluvoxamine, on average” value in data set [1] (after ten days of dosing with fluvoxamine) was approximately 6 times. In addition, the “decrease in pirfenidone exposure (AUC0-∞) in patients that concomitantly smoke, on average” value in data set [1] (compared to patients that do not smoke) is reported as “about 50%”. Further, the “exposure (AUC0-∞) in patients who smoke as % of exposure in patients that didn't smoke, on average” value in data set [1] (smokers vs nonsmokers) is given as “about 50%”.
